# Assays:
# Assay type in all cases: cell-based, human
# [1] = tested on: MDA-MB-231 cells; test: In vitro association study (flow cytometry, Cy5), MDA-MB-231; settings: for cellular association value (DFO/Cy5 BHA dendrimers; quantity not named, table stands under 'Percent of cellular association'): MDA-MB-231, 0.5 h
# Method: (§1) MDA-MB-231, MDA-MB-231/HER2 (HER2 knock in) (as described above), or SKOV-3 cells were seeded in a 24-well plate (1×10^5 cells per well) in 500 μL of appropriate growth media with the addition of 10% (v/v) fetal bovine serum (FBS) and incubated with compound 36 or 41 at 3.33 nM, […] atmosphere. After incubation, non-binding/non-associating particles were removed from adherent cells by gently washing with DPBS three times (300 μL/well). Cells were removed from plates by treatment with TrypLE™ Express Enzyme (1×), no phenol red (150 μL/well) for 5-10 min at room temperature. The plates were then placed on ice. Cellular binding and association of sample were then determined through flow cytometry by the acquisition of the signal from Cy5.
# [2] = tested on: MDA-MB-231/HER2 cells; test: In vitro association study (flow cytometry, Cy5), MDA-MB-231/HER2; settings: for cellular association value (DFO/Cy5 BHA dendrimers; quantity not named, table stands under 'Percent of cellular association'): MDA-MB-231/HER2, 0.5 h
# Method: as §1
# [3] = tested on: MDA-MB-453 cells; test: Cell association by flow cytometry (Cy5), MDA-MB-453
# Method: The HER2-expressing human metastatic carcinoma cell line MDA-MB-453 (ATCC HTB-131) and the HER2-negative epithelial adenocarcinoma cell line MDA-MB-231 (ATCC HTB-26) were maintained in Dulbecco's Modified Eagle's Medium (DMEM) containing 10% FBS and penicillin-streptomycin (100 U/mL) at 37° C. under a 5% CO2 humidified atmosphere and subcultured prior to confluence using trypsin. Human adenocarcinoma ovary cell line SKOV-3 (ATCC® HTB-77) cells were maintained in RPMI media with the addition of 10% (v/v) FBS and penicillin-streptomycin (100 U/mL) at 37° C. in a 5% CO2 humidified atmosphere and subcultured prior to confluence.
# For measurement of cell association by flow cytometry, cells in suspension were added at 1×10^5 cells per well to a 96 well assay plate. Following incubation with nanobody-dendrimer or unconjugated dendrimer for 1 hour on ice, cells were washed three times with 200 ul of DMEM containing 10% FBS to remove unbound dendrimer. Cells were then resuspended in chilled Fluorobrite media supplemented with 10% FBS and Cy5 fluorescence measured using 642 nm excitation and emission collected between 661-691 nm. To measure internalisation kinetics, nanobody-dendrimer was incubated with cells for 24, 4, 1, 0.5 and 0.1 hours at 37° C. before unbound nanobody-dendrimer was removed by washing and analysed by flow cytometry.
# [4] = tested on: SKOV-3 cells; test: In vitro association study of G5 cabazitaxel dendrimers, SKOV-3; settings: SKOV-3, 3.33 nM
# Method: (§2) MDA-MB-231, MDA-MB-231/HER2 (HER2 knock in), or SKOV-3 cells were seeded in a 24-well plate (1×10^5 cells per well) in 500 μL of appropriate growth media with the addition of 10% (v/v) fetal bovine serum (FBS) and 1% (v/v) penicillin-streptomycin, and incubated with compound 70 (G5, PEG1000, CTX) or 78 (2D3, G5, PEG1000, CTX) at 3.33 nM, with incubation time varied from 1 to 24 h at 37° C. in a 5% CO2 humidified atmosphere. After incubation, non-binding/non-associating particles were removed from adherent cells by gently washing with DPBS three times (300 μL/well). Cells were removed from plates by treatment with TrypLE™ Express Enzyme (1×), no phenol red (150 μL/well) for 5-10 min at room temperature. The plates were then placed on ice. Cellular binding and association of sample were then determined through flow cytometry by the acquisition of the signal from Cy5.
# [5] = tested on: MDA-MB-231/HER2 (HER2 knock in) cells; test: In vitro association study of G5 cabazitaxel dendrimers, MDA-MB-231/HER2; settings: MDA-MB-231/HER2, 3.33 nM
# Method: as §2
# [6] = tested on: MDA-MB-231 cells; test: In vitro association study of G5 cabazitaxel dendrimers, MDA-MB-231; settings: MDA-MB-231, 3.33 nM
# Method: as §2
substance,measurement,setting,value
BHALys[Lys]2[Lys]4[Lys]8[Lys]16[Lys]32[((α-NH-COPEG24NH-COPEG4(PhTzMe)/TCO-PEG3NH-COPEG24NH-Glu-DBCO)1(α-Lys(α-NHCy5)(ε-NHDFO))1(α-NH2)30)(ε-NH-COPEG1000)32] [Compound 85],"cellular association value (DFO/Cy5 BHA dendrimers; quantity not named, table stands under 'Percent of cellular association')",[1],33.23 ± 2.2
same,"cellular association value (DFO/Cy5 BHA dendrimers; quantity not named, table stands under 'Percent of cellular association')",[2],25.6 ± 0.43
(MeTzPh)PEG4CO-NHPEG24CO—[N(PN)2][Lys]32[((α-NHCy5)1(α-NHAc)31)(ε-NH-COPEG1100)32] [Compound 39],Mean fluorescence intensity,"[1]; MDA-MB-231, 1 h",252.0 ± 6.0
same,Percent of cellular association,"[1]; MDA-MB-231, 1 h",0.97 ± 0.12%
same,Mean fluorescence intensity,"[1]; MDA-MB-231, 2 h",249.0 ± 8.7
same,Mean fluorescence intensity,"[1]; MDA-MB-231, 4 h",247.3 ± 7.2
same,Mean fluorescence intensity,"[1]; MDA-MB-231, 24 h",196.3 ± 3.1
same,"Mean Fluorescence Intensity (Cy5), MFI","[3]; MDA-MB-453, 1 hour on ice, triplicate wells",4.349 ± 0.08
same,binding to HER2-positive MDA-MB-453 cells,[3]; result in words,did not bind
same,Mean fluorescence intensity,"[2]; MDA-MB-231/HER2, 1 h",257.5 ± 12.0
same,Mean fluorescence intensity,"[2]; MDA-MB-231/HER2, 2 h",249.0 ± 15.6
same,Mean fluorescence intensity,"[2]; MDA-MB-231/HER2, 4 h",207.0 ± 2.8
same,Percent of cellular association,"[2]; MDA-MB-231/HER2, 4 h",0.47 ± 0.21%
same,Mean fluorescence intensity,"[2]; MDA-MB-231/HER2, 24 h",207.5 ± 40.3
BHALys[Lys]2[Lys]4[Lys]8[((α-NH-COPEG24NH-COPEG4(PhTzMe)/TCO-PEG3NH-COPEG24NH-Glu-DBCO)1(α-Lys(α-NHCy5)(ε-NHDFO))1(α-NH2)6)(ε-NH-COPEG1000)8] [Compound 83],"cellular association value (DFO/Cy5 BHA dendrimers; quantity not named, table stands under 'Percent of cellular association')",[1],42.8 ± 2.78
same,"cellular association value (DFO/Cy5 BHA dendrimers; quantity not named, table stands under 'Percent of cellular association')",[2],43.23 ± 3.48
BHALys[Lys]2[Lys]4[Lys]8[Lys]16[((α-NH-COPEG24NH-COPEG4(PhTzMe)/TCO-PEG3NH-COPEG24NH-Glu-DBCO)1(α-Lys(α-NHCy5)(ε-NHDFO))1(α-NH2)14)(ε-NH-COPEG1000)16] [Compound 84],"cellular association value (DFO/Cy5 BHA dendrimers; quantity not named, table stands under 'Percent of cellular association')",[1],20.23 ± 0.63
same,"cellular association value (DFO/Cy5 BHA dendrimers; quantity not named, table stands under 'Percent of cellular association')",[2],16.7 ± 2.48
BHA[Lys]32[((α-NH-COPEG24NH-COPEG4(PhMeTz))1-4(α-NHCy5)1(α-NH-COPEG9-Val-Ala-PAB-P-Trigger-NMeCO-CTX)22) (α-NH2)5-8(ε-NH-COPEG1100)32] [Compound 70],Mean fluorescence intensity (MFI),[4]; 1 h,1.00 ± 0.29
same,Mean fluorescence intensity (MFI),[4]; 3 h,3.46 ± 0.69
same,Mean fluorescence intensity (MFI),[4]; 6 h,3.90 ± 0.10
same,Mean fluorescence intensity (MFI),[4]; 24 h,11.4±0.42
same,binding over 24 h,[4]; in words,minimal binding
same,Mean fluorescence intensity (MFI),[5]; 1 h,0.77 ± 0.06
same,Mean fluorescence intensity (MFI),[5]; 3 h,7.72 ± 4.17
same,Mean fluorescence intensity (MFI),[5]; 6 h,5.82 ± 0.07
same,Mean fluorescence intensity (MFI),[5]; 24 h,12.4±0.64
same,binding over 24 h,[5]; in words,minimal binding
same,Mean fluorescence intensity (MFI),[6]; 1 h,1.00 ± 0.14
same,Mean fluorescence intensity (MFI),[6]; 3 h,4.10 ± 0.71
same,Mean fluorescence intensity (MFI),[6]; 6 h,5.65 ± 0.64
same,Mean fluorescence intensity (MFI),[6]; 24 h,13.4 ± 0.07
same,binding over 24 h,[6]; in words,minimal binding

# From US12653896B2, “Targeted dendrimer conjugates” (Starpharma Pty Ltd, priority 2019, dated 2026)
